Key:
AXL kinase = biological target: T1, AXL kinase (Homo sapiens, UniProt P30530); test: Inhibitory activity of compound against AXL kinase (HTRF KinEASE); type: biochemical; settings: AXL enzyme (Carna, 08-107), ATP 15 μM; "<" means below detection limit of the test
T1 construct: purchased Carna 08-107
T1 sequence (P30530 473-894 limits assumed): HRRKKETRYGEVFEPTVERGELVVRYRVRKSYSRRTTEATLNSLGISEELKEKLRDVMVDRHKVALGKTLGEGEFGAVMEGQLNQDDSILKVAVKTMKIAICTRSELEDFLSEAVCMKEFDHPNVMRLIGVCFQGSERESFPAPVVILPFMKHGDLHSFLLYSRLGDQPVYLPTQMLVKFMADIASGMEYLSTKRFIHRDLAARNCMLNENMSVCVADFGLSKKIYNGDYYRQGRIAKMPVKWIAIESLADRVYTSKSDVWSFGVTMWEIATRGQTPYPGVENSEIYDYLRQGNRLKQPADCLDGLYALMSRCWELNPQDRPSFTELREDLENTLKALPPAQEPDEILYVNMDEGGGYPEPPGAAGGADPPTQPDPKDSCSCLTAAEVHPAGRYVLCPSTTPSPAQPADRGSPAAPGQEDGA
Outline: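 AXL enzyme (final 0.016 ng/uL) was preincubated with compound (8 concentrations from 1 μM, ½ log steps) for 15 min at room temperature, then reacted with TK Substrate 3-biotin (final 1) and ATP (final 15 μM) for 45 min at 25° C. Phosphorylation was read by HTRF (TK antibody-cryptate, streptavidin-XL665, 1 h); IC50 from variable-slope dose-response fit.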

[1] = test system: MV-4-11 (human myeloid monocytic leukemia cell line); test: Proliferation inhibition activity of compounds to MV-4-11 cells (CellTiter-Glo); type: cell-based; settings: MV4-11 cells, 72 h dosing
Protocol: MV-4-11 (human myeloid monocytic leukemia cell line, culture medium: JIMDM+10% fetal bovine serum) is purchased from Cobioer Biosciences Co., Ltd and cultured in a 5% C02 incubator at 37° C. The cells in a logarithmic growth phase are plated in a 96-well plate at cell densities of 8000 cells/well, 6000 cells/well, 2000 cells/well, 2000 cells/well and 3000 cells/well, and a blank control group is set at the same time.
A compound to be tested and the positive drug are dissolved in dimethyl sulfoxide to prepare a 10 mM stock solution, which is then stored in −80° C. refrigerator for long-time storage. After the cells are plated for 24 h, the 10 mM compound stock solution is diluted with dimethyl sulfoxide to obtain a working solution having a 200-fold concentration (the highest concentration is 200 or 2000 μM, a 3-fold gradient, a total of 10 concentrations), and 3 μL of the working solution of each concentration is added to 197 μL of complete medium, and diluted into a working solution of 3-fold concentration. 50 μL of the working solution is then taken and added to a 100 μL cell culture medium (a final concentration of dimethyl sulfoxide is 0.5%, v/v), and two complex holes are set for each concentration. After 72 h of dosing treatment, 50 μl of CellTiter-Glo® (purchased from Promega) is added to each well. Fluorescence signals are measured on Envision (PerkinElmer) according to an operating procedure of the specification. GraphPad Prism 5 software log(inhibitor) vs. response-Variable slope is used to fit a dose-response curve, so as to obtain the IC50 value of the compound to the inhibition of cell-proliferation. The calculation formulation of the inhibition rate is as follows: […]
wherein: signal value of subject: a mean fluorescence signal of cell+medium+compound group; signal value of blank group: a mean fluorescence signal of medium group (containing 0.5% DMSO); signal value of negative control group: a mean fluorescence signal of cell+medium group (containing 0.5% DMSO).

Row | SMILES | IC50 (AXL kinase) | IC50 [1]
1 | CS(=O)(=O)Nc1ccccc1Nc1nc(Nc2ccc3c(c2)CC[C@@H](N2CCCC2)CC3)ncc1Cl [Example 30, (S)—N-(2-((5-chloro-2-((7-(pyrrolidin-1-yl)-6,7,8,9-tetrahydro-5H-benzo[7]annulen-2-yl)amino)pyrimidin-4-yl)amino)phenyl)methanesulfonamide] | 1.05 nM | 2.64 nM
2 | CNC(=O)c1ccccc1Nc1nc(Nc2ccc3c(c2)CCN(C2CCCC2)CC3)ncc1Cl [Example 32, 2-((5-chloro-2-((3-cyclopentyl-2,3,4,5-tetrahydro-1H-benzo(d)aza-7-yl)amino)pyrimidine-4-yl)amino)-N-methylbenzamide] | 0.75 nM | 1.98 nM
3 | NC(=O)c1ccccc1Nc1nc(Nc2ccc3c(c2)CC[C@@H](N2CCCC2)CC3)ncc1Cl [Example 13, (S)-2-((5-chloro-2-((7-(pyrrolidin-1-yl)-6,7,8,9-tetrahydro-5H-benzo[7]annulen-2-yl)amino)pyrimidin-4-yl)amino)benzamide] | < 0.11 nM | 0.64 nM
4 | NC(=O)c1cc(F)ccc1Nc1nc(Nc2ccc3c(c2)CC[C@@H](N2CCCC2)CC3)ncc1Cl [Example 16, (S)-2-((5-chloro-2-((7-(pyrrolidin-1-yl)-6,7,8,9-tetrahydro-5H-benzo[7]annulen-2-yl)amino)pyrimidin-4-yl)amino)-5-fluorobenzamide] | 0.12 nM | 0.97 nM
5 | CC(C)S(=O)(=O)c1ccccc1Nc1nc(Nc2ccc3c(c2)CC[C@@H](N2CCCC2)CC3)ncc1Cl [Example 22, (S)-5-chloro-N^4-(2-(isopropylsulfo)phenyl)-N^2-(7-(pyrrolidin-1-yl)-6,7,8,9-tetrahydro-5H-benzo[7]annulen-2-yl)pyrimidine-2,4-diamine] | 0.11 nM | 6.76 nM
6 | CS(=O)(=O)c1ccccc1Nc1nc(Nc2ccc3c(c2)CC[C@@H](N2CCCC2)CC3)ncc1Cl [Example 23, (S)-5-chloro-N^4-(2-(methylsulfonyl)phenyl)-N^2-(7-(pyrrolidin-1-yl)-6,7,8,9-tetrahydro-5H-benzo[7]annulen-2-yl)pyrimidine-2,4-diamine] | 1.38 nM | 7.11 nM
7 | CN(C)S(=O)(=O)c1ccccc1Nc1nc(Nc2ccc3c(c2)CC[C@@H](N2CCCC2)CC3)ncc1Cl [Example 1, (S)-2-((5-chloro-2-((7-(pyrrolidin-1-yl)-6,7,8,9-tetrahydro-5H-benzo[7]annulen-2-yl)amino)pyrimidin-4-yl)amino)-N,N-dimethyl benzenesulfonamide] | 0.33 nM | 6.83 nM
8 | CC(C)(O)c1ccccc1Nc1nc(Nc2ccc3c(c2)CC[C@@H](N2CCCC2)CC3)ncc1Cl [Example 15, (S)-2-(2-((5-chloro-2-((7-(pyrrolidin-1-yl)-6,7,8,9-tetrahydro-5H-benzo[7]annulen-2-yl)amino)pyrimidin-4-yl)amino)phenyl)propan-2-ol] | 2.41 nM | 9.15 nM
9 | O=S(=O)(NC1CC1)c1ccccc1Nc1nc(Nc2ccc3c(c2)CC[C@@H](N2CCCC2)CC3)ncc1Cl [Example 24, (S)-2-((5-chloro-2-((7-(pyrrolidin-1-yl)-6,7,8,9-tetrahydro-5H-benzo[7]annulen-2-yl)amino)pyrimidin-4-yl)amino)-N-cyclopropyl benzenesulfonamide] | < 0.11 nM | 6.89 nM
10 | CNC(=O)c1ccccc1Nc1nc(Nc2ccc3c(c2)CC[C@@H](N2CCCC2)CC3)ncc1Cl [Example 12, (S)-2-((5-chloro-2-((7-(pyrrolidin-1-yl)-6,7,8,9-tetrahydro-5H-benzo[7]annulen-2-yl)amino)pyrimidin-4-yl)amino)-N-methylbenzamide] | < 0.11 nM | 1.44 nM
11 | O=C(c1ccccc1Nc1nc(Nc2ccc3c(c2)CC[C@@H](N2CCCC2)CC3)ncc1Cl)N1CCCC1 [Example 6, (S)-(2-((5-chloro-2-((7-(pyrrolidin-1-yl)-6,7,8,9-tetrahydro-5H-benzo[7]annulen-2-yl)amino)pyrimidin-4-yl)amino)phenyl)(pyrrolidin-1-yl)methanone] | < 0.11 nM | 3.38 nM
12 | O=C1NCc2cccc(Nc3nc(Nc4ccc5c(c4)CC[C@@H](N4CCCC4)CC5)ncc3Cl)c21 [Example 29, (S)-7-((5-chloro-2-(((7-(pyrrolidin-1-yl)-6,7,8,9-tetrahydro-5H-benzo[7]annulen-2-yl)amino))pyrimidin-4-yl)amino)isoindolin-1-one] | 0.34 nM | 3.23 nM

Other lines, results leading:

Row | IC50 (AXL kinase) | IC50 [1] | SMILES
13 | 0.72 nM | 4.93 nM | Clc1cnc(Nc2ccc3c(c2)CC[C@@H](N2CCCC2)CC3)nc1Nc1ccccc1CN1CCOCC1 [Example 40, (S)-5-chloro-N^4-(2-(morpholinmethyl)phenyl)-N^2-(7-(pyrrolidin-1-yl)-6,7,8,9-tetrahydro-5H-benzo[7]annulen-2-yl)pyrimidine-2,4-diamine]
14 | 0.36 nM | 5.12 nM | CNC(=O)c1cc(Cl)ccc1Nc1nc(Nc2ccc3c(c2)CC[C@@H](N2CCCC2)CC3)ncc1Cl [Example 36, (S)-5-chloro-2-((5-chloro-2-((7-(pyrrolidin-1-yl)-6,7,8,9-tetrahydro-5H-benzo[7]annulen-2-yl)amino)pyrimidin-4-yl)amino)-N-methylbenzamide]
15 | 0.18 nM | 3.39 nM | CNC(=O)c1cc(OC)ccc1Nc1nc(Nc2ccc3c(c2)CC[C@@H](N2CCCC2)CC3)ncc1Cl [Example 37, (S)-2-((5-chloro-2-(((7-(pyrrolidin-1-yl)-6,7,8,9-tetrahydro-5H-benzo[7]annulen-2-yl)amino))pyrimidin-4-yl)amino)-5-methoxyl-N-methylbenzamide]
16 | 1.35 nM | 4.23 nM | Cc1c(F)ccc(Nc2nc(Nc3ccc4c(c3)CC[C@@H](N3CCCC3)CC4)ncc2Cl)c1P(C)(C)=O [Example 135, (S)-(6-((5-chloro-2-((7-(pyrrolidin-1-yl)-6,7,8,9-tetrahydro-5H-benzo[7]annulen-2-yl)amino)pyrimidin-4-yl)amino)-3-fluoro-2-methylphenyl)dimethyl phosphine oxide]
17 | 0.5 nM | 3.48 nM | CNC(=O)c1cc(O)ccc1Nc1nc(Nc2ccc3c(c2)CC[C@@H](N2CCCC2)CC3)ncc1Cl [Example 45, (S)-2-((5-chloro-2-((7-(pyrrolidin-1-yl)-6,7,8,9-tetrahydro-5H-benzo[7]annulen-2-yl)amino)pyrimidin-4-yl)amino)-5-hydroxyl-N-methylbenzamide]
18 | 4.94 nM | 10.1 nM | COCc1ccc(Nc2nc(Nc3ccc4c(c3)CCC(N3CC5CC3C5)CC4)ncc2Cl)c(P(C)(C)=O)c1 (single isomer, unassigned) [Example 116 Isomer 116-1, (2-((2-((7-(2-azabicyclo[2.1.1]hexan-2-yl)-6,7,8,9-tetrahydro-5H-benzo[7]annulen-2-yl)amino)-5-chloropyrimidin-4-yl)amino)-5-(methoxymethyl)phenyl)dimethyl phosphine oxide]
19 | 9.85 nM | 8.3 nM | CN1Cc2cccc(Nc3nc(Nc4ccc5c(c4)CCN(C4CCOCC4)CC5)ncc3Cl)c2C1=O [Example 49, 7-((5-chloro-2-((3-(tetrahydro-2H-pyran-4-yl)-2,3,4,5-tetrahydro-1H-benzo[d]aza-7-yl)amino)pyrimidin-4-yl)amino)-2-methylisoindolin-1-one]
20 | 0.85 nM | 3.63 nM | COc1c(F)ccc(Nc2nc(Nc3ccc4c(c3)CC[C@@H](N3CCCC3)CC4)ncc2Cl)c1P(C)(C)=O [Example 134, (S)-(6-((5-chloro-2-((7-(pyrrolidin-1-yl)-6,7,8,9-tetrahydro-5H-benzo[7]annulen-2-yl)amino)pyrimidin-4-yl)amino)-3-fluoro-2-methoxyphenyl)dimethyl phosphine oxide]
